In patent US20110229499A1, “METHOD FOR TREATMENT OF VASCULAR HYPERPERMEABILITY” (priority 2010, published 2011):

Test system: Rat lung microvascular endothelial cells
Test: Adherens junction damage, beta catenin immunofluorescence
Assay type: cell-based
Settings: SCF 100 ng/ml pre-treatment 1 hour
Method: Rat lung microvascular endothelial cells were grown on fibronectin coated chamber slides in complete MCDB-3 media for 24 hours. The cells were pre-treated with SCF (100 ng/ml) for 1 hour. The cells exposed to shock serum or were transfected with caspase-3 (5 μg/ml) for 60 minutes. Caspase-3 were exposed to TransIT (10 μl/ml) for 15 minutes before exposure to the cells. The cells were washed in PBS, permeabilized with Triton X-100 and fixed with 4% paraformaldehyde. The cells were then washed in PBS, blocked with 2.5% BSA-PBS and exposed to polyclonal antibody against β-catenin overnight at 4° C. The cells were washed, mounted in an antifade-DAPI mountant and visualized utilizing a fluorescent microscope.

SCF: stem cell factor, a soluble factor (protein) produced by stem cells
caspase-3 mediated adherens junction disruption (caspase-3 5 μg/ml transfected 60 minutes): did not protect
shock serum-induced adherens junction disruption (shock serum 60 minutes): showed protection
